Assays:
SYF and SYF+Src cells = experiment: Protein tyrosine phosphorylation in SYF and SYF+Src cells; format: cell-based, mouse; conditions: SYF+Src cells
Method: FIG. 9B. Both SYF and SYF+Src cells were treated with 100 μM ouabain for 5 min and analyzed as in A. Representative Western blots of three experiments are shown in both A and B.
(§1) Cells were lysed in RIPA buffer containing 1% Nonidet P40, 0.25% sodium deoxycholate, 150 mM NaCl, 1 mM EDTA, 1 mM phenylmethylsulfonyl fluoride, 1 mM sodium orthovanadate, 1 mM NaF, 10 μg/ml aprotinin, 10 μg/mlleupeptin, and 50 mM Tris-HCl (pH 7.4). Cell lysates were cleared by centrifugation at 16,000×g for […], and the supernatants (1 mg) were either immunoprecipitated with anti-α1 antibody or incubated with different GST-fusion proteins. The complexes were then pulled down by either protein G agarose or glutathione beads (Ma et al., 2000; Haas et al., 2002) and analyzed by Western blot.

PY-17 cells = experiment: FAK Tyr925 phosphorylation in α1 knockdown cells; format: cell-based, pig; conditions: 1 μM PP2 for 0.5 and 2 h
Method: FIG. 17D. P-11 and PY-17 cells were treated with 1 μM PP2 for 0.5 and 2 h. FAK and Src activation was measured by using the specific antibodies. A representative Western blot is shown, and the same experiments were repeated three times.
(§2) Cells were washed with PBS, solubilized in modified ice-cold radioimmune precipitation assay buffer, and subjected to immunoprecipitation or Western blot analysis. Protein signal was detected using the enhanced chemiluminescence kit and quantified using a Bio-Rad GS-670 imaging densitometer.

LLC-PK1 cells [1] = experiment: Recruitment of Src to the Na+/K+-ATPase signaling complex (co-immunoprecipitation); format: cell-based, pig; conditions: 1 μM pretreatment 15 min, then 1 μM ouabain 5 min
Method: FIG. 9C Inhibition of Src blocks ouabain-induced recruitment of Src to the Na+/K+-ATPase signaling complex. LLC-PK1 cells were pretreated with 1 μM PP2 or PP3 for 15 min and then exposed to 1 μM ouabain for 5 min. Cell lysates were immunoprecipitated and analyzed. Values are mean±SE of at least four independent experiments. * p<0.05.
as §1

LLC-PK1 cells [2] = experiment: Sensitivity of LLC-PK1-derived cells to selection agents; format: cell-based, pig
Method: Another batch of cells was co-transfected with pEYFP together with the pSuppressor-A4 siRNA and pBade-puro so that the co-expressed EYFP could be used as a marker to pick clones. Empty vector (pSuppressor) or A1 siRNA-transfected cells were co-selected and used as a control. The cells were selected with puromycin (1 μg/ml) 24 h posttransfection. Puromycin-resistant colonies were cloned and expanded. To rescue the Na+/K+-ATPase knockdown cells, cells were transfected with the pRc/CMV-α1AACm1. Selection was initiated with 3 μM ouabain because untransfected cells were very sensitive to ouabain. After about 1 week, ouabain-resistant colonies were isolated and expanded into stable cell lines in the absence of ouabain. G418 was not used because these cells are resistant to it, requiring more than 3 mg/ml to kill the untransfected cells.

[3] = biological target: T1, purified pig kidney Na+/K+-ATPase (Sus scrofa, UniProt P05024); experiment: ATPase activity of purified pig kidney Na+/K+-ATPase; format: biochemical
T1 construct: Na+/K+-ATPase was purified from pig kidney outer medulla using the Jorgensen method; from tissue; host or cells: pig kidney outer medulla
Source text: Src, without the first 85 amino acid residues, was purified from sf-9 cells as described (Ma et al., 2000) and used in the initial binding assays to ensure that Src binds to the Na+/K+-ATPase, but not the lipid composition in the purified Na+/K+-ATPase preparation. In subsequent experiments (e.g., phosphorylation and activity assays), purified recombinant full-length Src from Upstate Biotechnology was used. Na+/K+-ATPase was purified from pig kidney outer medulla using the Jorgensen method (Xie et al., 1996) and the preparations with specific activities between 1200 and 1400 μmol Pi/mg/h were used.
GST fusion proteins or His-tagged proteins were expressed in Escherichia coli BL21 and purified on glutathione beads or nickel column.

[4] = biological target: T2, Na+/K+-ATPase/Src complex (Sus scrofa, UniProt P05024); experiment: Src pY418 phosphorylation of the Na+/K+-ATPase/Src complex (Western blot); format: biochemical
T2 construct: Na+/K+-ATPase was purified from pig kidney outer medulla using the Jorgensen method; tissue Upstate Biotechnology (Src only); host or cells: pig kidney outer medulla (Na+/K+-ATPase)
Method: (§3) The Src kinase activity was assayed using a commercial kit (Haas et al., 2000). To determine how Na+/K+-ATPase affects Src kinase activity, the purified Src (4.5 U) was incubated with 5 μg of the purified Na+/K+-ATPase in the Src assay buffer for 30 min at room temperature. Afterward, both control Src or the Na+/K+-ATPase-bound Src were exposed to 10 μM ouabain and Src kinase activity was determined. In other experiments, the Src pY418 was measured by anti-pY418 antibody to indicate Src activation (Ma et al., 2000). To do so, the purified Src (4.5 U) was incubated with different amounts of the purified Na+/K+-ATPase or GST-Na+/K+ATPase constructs in phosphate-buffered saline (PBS) for 30 min at 37° C. Afterward, 2 mM ATP/Mg2+ was added. The reaction continued for 5 min at 37° C. and was stopped by addition of SDS sample buffer.
(§4) The purified Na+/K+-ATPase was solubilized in 1% Triton X-100 PBS and centrifuged at 100,000×g for 30 min. The supernatant was collected for the binding assay. GST-fusion proteins (5 μg) were conjugated on glutathione beads and incubated with the solubilized Na+/K+-ATPase in 500 μl PBS in the presence of 0.5% Triton X-100 at room temperature for 30 min. The beads were washed with the same buffer for four times. The bound Na+/K+ATPase was resolved on 10% SDS-PAGE and detected by Western blot. Reciprocal binding assay using GST-Na+/K+-ATPase constructs (5 μg) and purified Src lacking of first 85 amino acids (200 ng) or His-tagged Src constructs (100 ng) was done similarly. To test if native Na+/K+-ATPase binds Src, the above experiments were repeated in the absence of Triton X-100. To make the Na+/K+-ATPase/Src complex, 2-5 μg of the purified Na+/K+ATPase was incubated with 4.5 U of Src (˜10 ng) in PBS in the absence of Triton X-100 at room temperature for 30 min. The complex was either used for the experiments directly as indicated or collected by centrifugation at 100,000×g for 30 min.

Src [5] = biological target: T3, Src (Sus scrofa, UniProt K7GM45); experiment: Src pY418 in LLC-PK1 cells transiently transfected with YFP-tagged constructs; format: cell-based, pig; conditions: transient transfection 24 h
T3 construct: endogenous in cells; host or cells: LLC-PK1 (pig kidney)
Method: FIG. 22A. LLC-PK1 cells were transient-transfected with YFP-tagged ND1, ND, and CD3 for 24 h.
Cells were then lysed in RIPA buffer and probed for pY418. YFP were also transient-transfected into LLC-PK1 cells as control.

Src [6] = experiment: In vitro binding assay of GST-Na+/K+-ATPase constructs with purified or His-tagged Src; set-up: species or system chicken
Method: (§5) The preparation of chicken c-Src lacking the SH4 domain and GST-Src mutants were done (Ma et al., 2000). GST-NT (amino acid residue 6-90) [SEQ ID NO: 51], GST-CD2 (amino acid residue 152-288) [SEQ ID NO 52], and GST-CD3 (amino acid residue 350-785) [SEQ ID NO: 53] expression vectors were constructed based on the sequence of pig kidney Na+/K+-ATPase α1 subunit (see FIG. 3A).
as §4

Src [7] = biological target: T4, Src (Gallus gallus, UniProt P00523); experiment: as above; set-up: species or system chicken; conditions: purified Src lacking first 84 amino acids, 200 ng
T4 construct: His; made in house; host or cells: sf-9 cells (Src without the first 85 residues); Escherichia coli BL21 (His-tagged constructs)
Method: as §5, §4

Src [8] = biological target: T3, Src; experiment: GST-CD3 pulldown of Src from LLC-PK1 cell lysates; format: binding, pig; conditions: 1 mg LLC-PK1 cell lysates
Method: FIG. 4C. A Western blot showing that Src was pulled down by GST-CD3 of Na+/K+-ATPase (Na/K) and H+/K+-ATPase (H/K), but not SERCA from 1 mg LLC-PK1 cell lysates.
as §1

Src [9] = biological target: T5, Src (Homo sapiens, UniProt P12931); experiment: Src pY418 autophosphorylation / activity of purified recombinant Src; format: biochemical; conditions: recombinant Src (4.5 U) incubated 30 min, then 2 mM ATP/Mg2+ 5 min
T5 construct: purified recombinant full-length Src from Upstate Biotechnology was used; purchased Upstate Biotechnology (Lake Placid, N.Y.)
Method: as §3
The reaction was stopped by adding 5× loading buffer. pY418 was probed to measure Src activation.

purified Na+/K+-ATPase = biological target: T6, purified Na+/K+-ATPase (Sus scrofa, UniProt P05024); experiment: In vitro GST pulldown binding assay with purified Na+/K+-ATPase; set-up: species or system pig; conditions: GST-tagged Src truncations and purified Na+/K+-ATPase
T6 construct: Na+/K+-ATPase was purified from pig kidney outer medulla using the Jorgensen method; from tissue; host or cells: pig kidney outer medulla
Method: as §4

Src and ERK1/2 = experiment: Activation of Src and ERK1/2 in P-11, A4-11, PY-17 and AAC-19 cells (Western blot); format: cell-based, pig; conditions: for increase in SrcTyr(P)418: n=3
Method: FIGS. 18A and 18B. Cells were exposed to 100 nM ouabain for either 5 or 15 min, and the cell lysates (50 μg/lane) were analyzed by Western blot for active Src or active ERK1/2. Blots were probed first with anti-Tyr(P)^418-Src or anti-pERK antibody, then stripped, and reprobed for total Src or ERK1/2 to ensure equal loading.
FIGS. 18 C and 18D. Cells were treated with indicated concentrations of ouabain for 5 min, and total cell lysates were analyzed for Tyr(P)^418-Src and total Src or pERK1/2 and total ERK1/2 as in FIGS. 18A and 18B. A representative Western blot and combined quantitative data are shown. The quantitative data (relative ratio of pSrc/Src or pERK/ERK) from three independent experiments (mean±S.E.) were calculated relative to the control condition of P-11 cells. *, p<0.05 versus the respective control condition of each cell line. con, control.
as §2

How did the “block of ouabain-induced protein tyrosine phosphorylation” value (SYF and SYF+Src cells) turn out when `CC(C)(C)n1nc(-c2ccc(Cl)cc2)c2c(N)ncnc21` [PP2] was run?
The value was “able to block”.

And the “increase in FAK Tyr(P)925 in knockdown cells” value (PY-17 cells)?
The value was “sensitive”.

Which “block of ouabain-induced recruitment of Src to the Na+/K+-ATPase” value (LLC-PK1 cells [1]) does the source give for `Nc1ncnc2c1cnn2-c1ccccc1` [PP3] here?
The value was “failed to block”.

How did the “concentration required to kill the untransfected cells” value (LLC-PK1 cells [2]; untransfected cells) turn out when `CN[C@@H]1[C@@H](O)[C@@H](O[C@@H]2[C@@H](O)[C@H](O[C@H]3O[C@H]([C@@H](C)O)[C@@H](O)[C@H](O)[C@H]3N)[C@@H](N)C[C@H]2N)OC[C@]1(C)O` [Peptide G418, G418] was run?
Its value is “more than 3 mg/ml”.

For `CN(CC[C@H](N)CC(=O)N[C@H]1C=C[C@H](n2ccc(N)nc2=O)O[C@@H]1C(=O)O)C(=N)N` [blasticidin], which “sensitivity of knockdown cells” value (LLC-PK1 cells [2]; 15 μg/ml) is on record?
Its value is “sensitive to blasticidin”.

With `[O]=[V]([O-])([O-])[O-]` [vanadate] as the compound, how does the “inhibition of the ATPase activity” value ([3]; 100 μM vanadate) read?
Its value is “complete inhibition”.

And the “inhibition of the ATPase activity” value ([3]; 10-100 μM vanadate)?
Its value is “completely inhibited the ATPase activity”.

What about the “Src pY418 of Na+/K+-ATPase/Src complex” value ([4]; 10-100 μM vanadate) of the same compound?
The value was “no effect on Src pY418”.

“CD3: YFP-tagged cytosolic domain 3 of Na+/K+-ATPase α1” was tested. Which “Src phosphorylation (pY418) in LLC-PK1 cells” value (Src [5]) did it give?
The value was “decrease Src phosphorylation”.

Which results are given for “GST-CD2: GST fusion of pig kidney Na+/K+-ATPase α1 amino acid residue 152-288”?
interaction with His-tagged SH3SH2 domain of Src (Src [6]): interacted with the SH3SH2 domain; interaction with His-tagged kinase domain of Src (Src [6]): not the kinase domain; interaction with Src (Src [7]): interacted

With “GST-CD3: GST fusion of pig kidney Na+/K+-ATPase α1 amino acid residue 350-785” as the compound, how does the “pulldown of Src from LLC-PK1 cell lysates” value (Src [8]) read?
Its value is “pulled down”.

And the “Src pY418 (autophosphorylation at Tyr418)” value (Src [9])?
Its value is “dose-dependent inhibition”.

And the “interaction with His-tagged SH3SH2 domain of Src” value (Src [6])?
Its value is “not the SH3SH2 domain”.

And the “interaction with His-tagged kinase domain of Src” value (Src [6])?
Its value is “interacted with the kinase domain”.

And the “interaction with Src” value (Src [7])?
The value was “interacted”.

Which “pulldown of Src from LLC-PK1 cell lysates” value (Src [8]) does the source give for “GST-H+/K+-CD3: GST fusion of the CD3 from rat gastric H+/K+-ATPase” here?
Its value is “pulled down Src”.

For “LRLEVKLGQGCFGEVWMGTWNGTTRVAIKTLKPGTMSPEAFLQEAQVMKKLRHE [KD1]”, which “binding to Na+/K+-ATPase” value (purified Na+/K+-ATPase) is on record?
Its value is “binds Na+/K+-ATPase”.

What about the “activation of Na+/K+-ATPase-inhibited Src” value ([4]; competing the binding motif for Src) of the same compound?
Its value is “effective in activating the Na+/K+-ATPase-inhibited Src”.

Which “increase in SrcTyr(P)418” value (Src and ERK1/2; P-11 cells) does the source give for “epidermal growth factor: epidermal growth factor” here?
Its value is 2.5±0.3 fold.

And the “stimulation of ERK1/2” value (Src and ERK1/2; PY-17 cells)?
The value was “able to stimulate ERK1/2”.

And the “increase in SrcTyr(P)418” value (Src and ERK1/2; PY-17 cells)?
Its value is 1.7±0.2 fold.

Reference: patent US9663561B2, “Methods of treatment of cancer using SRC-modulating peptides” (The University of Toledo, priority 2006, dated 2017)
